# Reference: patent US8674103B2, “Lyotropic liquid crystal systems based on aromatic tetracarboxylic bisbenzoimidazole derivatives and methods for making” (Nitto Denko Corporation, priority 2009, dated 2014)
# Assay: Measurement of dichroic ratios of coated films by polarized absorbance spectra
# Assay type: physicochemical
# Description: Gardner Co. Inc.) at a linear velocity of 25 mm/s. The resulting film thickness was approximately 0.2 μm. The process was conducted at room temperature (˜20° C.) and relative humidity of 65% after the film was dried under the same condition. […] The dichroic ratio […] was equal to about 23 at about 500 nm. […] Gardner Co. Inc.) at a linear velocity of 25 mm/s. The resulting film thickness was approximately 200 nm. The process was conducted at room temperature (˜20° C.) and relative humidity of 65% after the film was dried under the same condition. The film was characterized by absorbance spectra measured on a spectrophotometer in a wavelength range from 380 to 780 nm using a light beam polarized along the direction of the film application (Apar) and the direction perpendicular to that (Aper).
smiles,measurement,setting,value
O=C(NCCS(=O)(=O)[O-])c1ccc2nc3c4ccc5c(=O)n6c7cc(C(=O)NCCS(=O)(=O)[O-])ccc7nc6c6ccc(c(=O)n3c2c1)c4c56.[K+].[K+] [Compound 7],dichroic ratio (Kd),"Sample 6: 8 wt % solution titrated with KOH to pH 7, film approx. 0.2, at about 450 nm",about 8
O=C(NCCOCCOCCCS(=O)(=O)O)c1ccc2c(c1)nc1c3ccc4c5ccc6c7c(ccc(c8ccc(c(=O)n21)c3c84)c57)c(=O)n1c2cc(C(=O)NCCOCCOCCCS(=O)(=O)O)ccc2nc61 [Compound 1],dichroic ratio Kd=log(Apar)/log(Aper),"Sample 1: 12 wt % solution titrated with triethylamine to pH 7, film approx. 0.2 μm, at about 500 nm",about 23
same,λmax,"Table 1, LLC chromophores",500 nm
same,Dichroic ratio,"Table 1, at λmax",23
O=C(NCCOCCS(=O)(=O)O)c1ccc2c(c1)nc1c3ccc4c5ccc6c7c(ccc(c8ccc(c(=O)n21)c3c84)c57)c(=O)n1c2cc(C(=O)NCCOCCS(=O)(=O)O)ccc2nc61 [Compound 2],dichroic ratio (Kd),"Sample 2: 8 wt % solution titrated with LiOH to pH 7, film approx. 0.2, at about 500 nm",about 11
O=C(NCCCS(=O)(=O)[O-])c1ccc2nc3n(c2c1)Cc1ccc2c4c1c-3ccc4c(=O)n1c3cc(C(=O)NCCCS(=O)(=O)[O-])ccc3nc21.[Li+].[Li+] [Compound 8],dichroic ratio (Kd),"Sample 7: 8 wt % solution titrated with LiOH to pH 7, film approx. 0.2 μm, at about 450 nm",about 10
O=C(NCCN(CCCS(=O)(=O)O)CCCS(=O)(=O)O)c1ccc2c(c1)nc1c3ccc4c5ccc6c7c(ccc(c8ccc(c(=O)n21)c3c84)c57)c(=O)n1c2cc(C(=O)NCCN(CCCS(=O)(=O)O)CCCS(=O)(=O)O)ccc2nc61 [Compound 3],dichroic ratio (Kd),"Sample 3: 15 wt % solution titrated with LiOH to pH 7, film approx. 0.2 μm, at about 500 nm",about 17
O=C(NCCN1CCCC1)c1ccc2nc3c4ccc5c(=O)n6c7cc(C(=O)NCCN8CCCC8)ccc7nc6c6ccc(c(=O)n3c2c1)c4c56 [Compound 17d],dichroic ratio (Kd),"Sample 11: 25 wt % solution in water, film approx. 200 nm, at about 470 nm",about 4
